Assay results published in patent US10183011B2, “Anti-depression compounds” (Board of Regents of the University of Texas System, priority 2009, dated 2019).
“Also recorded” adds a separate entry of the source.

Experiments:
[1] = system: dentate gyrus of NPAS3-deficient mice; assay: NPAS3-deficient mice: neurogenesis, apoptosis, morphology and electrophysiology of the dentate gyrus; format: in vivo, mouse (npas3−/−)
Method: FIG. 14: Example 45 Compound has pro-neurogenic or neuroprotective efficacy in the dentate gyrus of NPAS3-deficient animals. Six 12 week old npas3^−/− mice were orally administered vehicle or Example 45 Compound (20 mg/kg/d) for 12 days, and also injected daily with BrdU (50 mg/kg). At the end of day 12, mice were sacrificed and tissue was stained for BrdU and doublecortin (DCX).
Apoptosis in NPAS3-deficient animals was inhibited by treatment with Example 45 Compound (20 mg/kg/d, p.o., for 12 days), whereas analogous treatment with vehicle alone had no effect. Images shown are representative of 10-12 sections evaluated per animal, with 3-5 […] male NPAS3-deficient mice per group.
Armed with these genotype- and region-specific deficits in both neuron morphology and electrophysiological activity, whether prolonged administration of Example 45 Compound might favorably repair either deficit in NPAS3-deficient animals was tested. […] Following oral gavage of pregnant female mice, 14 day embryos were recovered, dissected and processed by acetonitrile:water extraction so that Example 45 Compound levels could be measured in the embryonic brain. Daily administration of 20 mg/kg of Example 45 Compound to pregnant females yielded appreciable levels of the compound in the brain tissue of developing embryos. It was similarly observed that oral administration of the compound to lactating females led to delivery of Example 45 Compound to the brain tissue of weanling pups. […] Finally, it was observed that daily IP administration of Example 45 Compound to weaned pups at 20 mg/kg was sufficient to yield brain levels of Example 45 Compound at or above the level required to enhance adult neurogenesis.
Female mice heterozygous at the NPAS3 locus were mated to heterozygous males. Two weeks post-mating, females were given a daily oral gavage of either 20 mg/kg of Example 45 Compound or vehicle-only formula. Dosing was continued throughout the last trimester of pregnancy, as well as the two week post-natal period of lactation. Following weaning, pups were given a daily IP dose of either 20 mg/kg Example 45 Compound or vehicle control. At about 7 weeks of age, mice were switched to oral gavage delivery of the same dose of Example 45 Compound. When mice were 3 months of age they were sacrificed and brain tissue was dissected and subjected to either Golgi-Cox staining or electrophysiological recording. […] The corresponding electrophysiological deficit in CA1 region of the hippocampus, however, was not affected (FIG. 13B), underscoring the specificity of Example 45 Compound to improving functioning of the dentate gyrus in this animal model.
Recognizing that the reduced thickness of the granular layer of the dentate gyrus in NPAS3-deficient animals could be attributed to elevated levels of apoptosis of newborn hippocampal neural precursor cells, the effect of Example 45 Compound treatment on apoptosis in the hippocampus of NPAS3-deficient animals was examined through immunohistochemical staining of cleaved caspase 3 (CCSP3). […] It is thereby proposed that Example 45 Compound facilitated repair of the granular layer of the dentate gyrus in NPAS3-deficient mice by ameliorating a genotype-specific exacerbation of programmed cell death.

[2] = system: neural precursor cells in the subgranular zone of the dentate gyrus; assay: In vivo pro-neurogenic efficacy/neuroprotection assay: intracerebroventricular infusion, BrdU incorporation in the dentate gyrus; parameters: species or system mouse (C57/Bl6); conditions: for pro-neurogenic activity in the in vivo hippocampal neurogenesis assay: direct administration into the brain via Alzet minipumps for one week, 10 μM unless stated
Method: Compounds were evaluated for pro-neurogenic efficacy/neuroprotection in our standard in vivo assay at 10 μM concentration in four 12 week old adult male C57/Bl6 mice.
In an effort to identify compounds that might stimulate the birth of new neurons, or protect newborn neurons from cell death, a library of 1,000 compounds was screened using an in vivo assay. In the initial screen, compounds were randomly pooled into groups often and administered intracerebroventricularly at a constant rate over seven days into the left lateral ventricle of living mice via Alzet osmotic mini-pumps. Compounds were administered at a concentration of 10 μM for each molecule, making a total solute concentration of 100 μM. After seven days of infusion at a constant rate of 0.5 μL/hour, a total of 84 μL of volume will have left the pump (0.00084 μMoles) and entered the cerebrospinal fluid. The average volume of a brain from a 12 week old male, C57/B6 mouse in our study is 500 mm^3. […] Under these conditions, at the end of one week of infusion each compound would be present at 1.7 μMolar concentration. Since the actual amount of chemical compound in the brain is likely to be only a fraction of this predicted level, it is reasonable to estimate that compounds were administered at mid to low-nanomolar concentrations.
During compound infusion, animals were intraperitoneally (IP) injected daily with the thymidine analog, bromodeoxyuridine (BrdU), as a means of scoring the birth and survival of proliferating neural precursor cells in the hippocampus. Because both social interaction and voluntary exercise are known to stimulate hippocampal neurogenesis, mice were housed individually without access to running wheels throughout the screening period. Following the week-long period of compound administration, animals were perfused and sacrificed. Dissected brain tissue was fixed, embedded, sectioned, stained with antibodies to BrdU, and evaluated by light microcopy as a means of quantifying neurogenesis and survival of newborn neural precursor cells localized to the subgranular layer of the dentate gyrus on the brain hemisphere contralateral to the side of mini-pump cannulation. Every fifth section throughout the entire rostral-caudal extent of the hippocampus was analyzed, and the total number of BrdU+ cells was normalized against the measured volume of the dentate gyrus. Because both increased proliferation and survival of newborn neurons are important screening parameters, the screen was conducted over seven days in order to cast a wide net to detect molecules that might augment either process. […] Intracranial infusions of either fibroblast growth factor 2 (FGF-2) or artificial cerebral spinal fluid (aCSF) vehicle via the same, week-long protocol were employed as positive and negative controls. There was no difference in the number of BrdU-labeled cells in the dentate gyrus between mice subjected to surgical pump implantation and infusion with vehicle, and mice having had no surgery (FIG. 2). This confirmed the validity of the in vivo approach to assess the ability of intracerebroventricularly infused compounds to enhance hippocampal neurogenesis in the contralateral hemisphere.
In order to further study Example 45 Compound, an in vivo structure activity relationship (SAR) study was conducted using 37 chemical derivatives of the compound for pro-neurogenic activity via direct administration into the brain of adult mice via Alzet minipumps. Compounds were administered for one week at 10 uM into 4 mice per compound, along with daily IP injections of BrdU. Following compound administration, animals were perfused, sacrificed and subjected to sectioning, staining and light microscopy in order to monitor hippocampal neurogenesis localized to the subgranular layer of the dentate gyrus. Roughly 10% of the variant compounds retained pro-neurogenic activity indistinguishable from the parent compound. […]

β-secretase (BACE1) = β-secretase (BACE1) (Homo sapiens, UniProt P56817); conditions: Asso V., et al. (2008) Chem Med Chem 3:1530-1534; cited from earlier work
Chain of β-secretase (BACE1) (P56817 46-501, species assumed): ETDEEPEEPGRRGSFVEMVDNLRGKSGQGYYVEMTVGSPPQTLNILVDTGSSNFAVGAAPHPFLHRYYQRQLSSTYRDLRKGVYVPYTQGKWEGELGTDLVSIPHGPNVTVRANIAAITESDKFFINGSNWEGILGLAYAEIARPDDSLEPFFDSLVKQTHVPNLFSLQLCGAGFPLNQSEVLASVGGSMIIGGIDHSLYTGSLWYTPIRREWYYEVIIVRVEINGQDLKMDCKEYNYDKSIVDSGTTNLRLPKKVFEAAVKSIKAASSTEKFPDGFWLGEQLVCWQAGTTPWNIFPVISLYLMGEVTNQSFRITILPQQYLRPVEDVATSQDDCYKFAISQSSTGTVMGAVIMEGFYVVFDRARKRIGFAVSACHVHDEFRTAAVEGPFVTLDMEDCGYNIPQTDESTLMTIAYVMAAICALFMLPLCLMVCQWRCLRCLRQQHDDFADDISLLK

Row | SMILES | brain level in embryos and weanling pups ([1]; 20 mg/kg daily oral to pregnant or lactating females, LC/MS) [nM] | thickness of hippocampal subfields ([1]; 20 mg/kg/d from embryonic day 14 until 3 months of age, npas3−/− mice) | cleaved caspase 3 (CCSP3) staining, apoptosis in the dentate gyrus ([1]; 20 mg/kg/d p.o. for 12 days, NPAS3-deficient mice) | dendritic arborization of dentate gyrus granular neurons (Golgi-Cox) ([1]; extended daily treatment 20 mg/kg/d, npas3−/− mice) | synaptic responses (fEPSP) in hippocampal slices ([1]; extended treatment, npas3−/− mice) | increase of neurogenesis (BrdU) in npas3−/− mice ([1]; oral 20 mg/kg/d for 12 days) | health of treated animals ([1]; prolonged administration 20 mg/kg, relative to vehicle-only controls) | pro-neurogenic activity in the in vivo hippocampal neurogenesis assay [2] | ceiling of efficacy relative to Dimebon in the in vivo test of hippocampal neurogenesis ([2]; higher than Dimebon) | BACE1 inhibition (β-secretase (BACE1))
1 | OC(CNc1ccccc1)Cn1c2ccc(Br)cc2c2cc(Br)ccc21 (centres unmarked) [Example 45 Compound] | ≥ 1350 | selectively increased the thickness of the dentate gyrus granular cell layer | significantly reduced CCSP3 staining in the dentate gyrus; also recorded: statistically significant reduction in CCSP3 staining; also recorded: inhibited | robustly repaired morphological deficits in the dendritic branching; also recorded: enhanced dendritic arborization | normalized synaptic responses in the dentate gyrus but not the CA1 region | roughly 4 fold | did not affect any aspect of the health of mothers, embryos, weanlings or young adult mice | pro-neurogenic or neuroprotective activity at both concentrations | roughly 40% | –
2 | OC(CNc1cccc2ccccc12)Cn1c2ccc(Cl)cc2c2cc(Cl)ccc21 (centres unmarked) [Example P7C3-S184] | – | – | – | – | – | – | – | inactive in both in vivo assays | – | reported as a β-secretase (BACE1) inhibitor
